Converted amounts (≈) assume the structure as drawn. Read-outs that look alike come from different tables or passages of the source.
How the values were obtained:
[1] = Brain and plasma concentrations after IV dosing in mice (LCMS/MS); free brain level from equilibrium dialysis fu; assay type: in vivo; conditions: male FVB mice, IV 5 mg/kg; for Maximum whole brain concentration: sampled 5 min, 1, 6, 24 h; for Maximum free brain concentration: whole brain concentration x fu from brain homogenate equilibrium dialysis; for remaining at 24 h: mouse, plasma, 24 h relative to the 5 minute time point, read-out: Residual plasma concentration at 24 h (24h % Remaining)
Experimental: All in vivo studies were conducted in accordance with protocols approved by the Victorian College of Pharmacy, Animal Ethics Committee. Male, six week old FVB mice were obtained from the Animals Resources Center (Perth, Western Australia) and provided with food and water ad libitum. Mice were administered a 50 μL bolus injection of mefloquine, its enantiomers or one of twenty five quinoline methanol compounds by tail vein injection (dosing solution concentration 2.8 mg/ml) for a nominal dose of 5 mg/kg. The compounds were prepared in 5% DMSO in 5% glucose solution buffered to a pH of 3-5 using citrate or acetate as appropriate based on an assessment of the lipophilicity and pKa of the compound. At 5 min, 1 h, 6 h or 24 h post-dosing, mice were anaesthetized with inhaled isoflurane (3%) approximately 3-4 minutes prior to blood and brain harvest. Blood was collected by cardiac puncture from groups of 2-3 mice and the whole brain was removed. The whole brains were placed into preweighed polypropylene vials and snap frozen prior to storage along with the plasma samples at -20°C until analysis. On the day of analysis, the whole brain was homogenized in three parts of aqueous solution containing 0.1 M EDTA and 0.4 g/L KF (inhibitors of hydrolytic enzymes to reduce the potential for ex vivo tissue-mediated degradation of the test compounds). Calibration standards were prepared by spiking blank brain homogenate and blank plasma with the test compound. Both samples and standards were processed by adding acetonitrile (to precipitate proteins) and centrifuged to separate the supernatant for analysis. An aliquot of the supernatant from each brain homogenate and plasma samples were analysed by UPLC/MS/MS on either a Quattro Premier XE, a Quattro Ultima Pt or a Xevo XT Mass Spectrometer (Waters Corporation, USA).
The unbound fraction of each analog in mouse brain homogenate was determined in vitro using equilibrium dialysis according to methodology reported previously. In brief, a 96 well equilibrium dialysis apparatus was used to determine the unbound fraction in brain homogenate for each compound (HT Dialysis LLC, Gales Ferry, CT). Membranes (12-14 kDA cut-off) were conditioned in deionized water for 60 minutes, followed by conditioning in 80:20 deionized water:ethanol for 20 minutes, and then rinsed in artificial cerebrospinal fluid (CSF) before use. Mouse brain was removed from the freezer and allowed to thaw on the day of experiment. Thawed brain tissue was then homogenized with artificial CSF to a final composition of 1:2 brain:artificial CSF using a Covaris S2 (K Biosciences, Hoddesdon, UK). Diluted brain homogenate was then spiked with the test compound (10 ug/g), and 150 μL aliquots (n = 6 replicate determinations) loaded into the 96-well equilibrium dialysis plate. Dialysis vs artificial CSF (150 μL) was carried out for 5 hours in a temperature controlled incubator at ca. 37°C (Barworld Scientific Ltd, UK) using an orbital microplate shaker at 125 revolutions/minute (Barworld scientific Ltd, UK). At the end of the incubation period, aliquots of brain homogenate or artificial CSF were transferred to micronic tubes (Micronic B.V., the Netherlands) and the composition in each tube balanced with control fluid, such that the volume of artificial CSF to brain was the same. Sample extraction was performed by the addition of 400 μL of acetonitrile containing an appropriate internal standard. Samples were allowed to mix for 1 minute and then centrifuged at 3000 rpm in 96-well blocks for 15 minutes (Allegra X12-R, Beckman Coulter, USA). All samples were then analysed by UPLC/MS/MS on a Quattro Premier XE Mass Spectrometer (Waters Corporation, USA). The unbound fraction in brain was determined as the ratio of the peak area in artificial CSF to that in brain, with correction for dilution factor according to eq.1 [14].(1) [drawing 1] […]

P. falciparum strain W2 = assay: Plasmodium falciparum susceptibility assay (labeled hypoxanthine); assay type: cell-based; conditions: for IC90: Plasmodium falciparum; for Potency against P. falciparum in words: in vitro
Experimental: The in vitro activities of quinoline methanols against P. falciparum strains W2, D6, TM91C235, and TM90C2A were evaluated using the traditional labeled hypoxanthine assay of Desjardins et al as modified by Milhous et al. These four P. falciparum strains were selected since they have various levels of resistance to conventional anti-malarials. W2 is chloroquine resistant and mefloquine sensitive, D6 is chloroquine sensitive but naturally less susceptible to mefloquine, TM91C235 is resistant to mefloquine, chloroquine, and pyrimethamine as is TM90C2A, however this latter parasite is a two pfmdr1 copy strain (pfmdr1 amplification has been associated with clinical mefloquine resistance). Mefloquine is routinely screened in these assays to ensure the validity. Historical values for mefloquine against all the strains are reported elsewhere. The focus of this study was the mefloquine-sensitive strain W2, however values for the other strains for all the compounds are reported in the Supplementary Information.

[2] = Half-life after oral dosing (data not shown); assay type: in vivo

Q: Which results are given for `O[C@H](c1cc(C(F)(F)F)nc2c(C(F)(F)F)cccc12)[C@@H]1CCCCN1` (single isomer, unassigned) [(+) mefloquine enantiomer, reference compound]?
A: Maximum whole brain concentration [1]: 1159 ng/g; Maximum free brain concentration [1]: 2.5 ng/g

Q: With `OC(c1cc(C(F)(F)F)nc2c(C(F)(F)F)cccc12)C1CCCCN1` (single isomer, unassigned; (-)) [(-) mefloquine enantiomer, reference compound] as the molecule, how does the “Maximum whole brain concentration” value ([1]; 5 mg/kg) read?
A: 2249 ng/g

Q: And the “Maximum free brain concentration” value ([1]; 5 mg/kg)?
A: 5.2 ng/g

Q: What does the source list for `OC(c1cc(C(F)(F)F)nc2c(C(F)(F)F)cccc12)C1CCCCN1` (centres unmarked) [Mefloquine, mefloquine]?
A: Maximum whole brain concentration ([1]; listed as MQ, 5 mg/kg): 1807 ng/g; Maximum free brain concentration ([1]; listed as MQ, 5 mg/kg): 4.9 ng/g; remaining at 24 h [1]: 35%; IC90 (P. falciparum strain W2; mefloquine-sensitive W2 strain of P. falciparum, read-out: IC90 W2): 0.01 mg/L (≈ 0.0264 µM)

Q: What does the source list for `CCCCNCC(O)c1cc(C(F)(F)F)nc2c(C(F)(F)F)cccc12` (centres unmarked) [WR177000]?
A: Brain concentrations (free and whole) relative to mefloquine, in words [1]: much higher; Potency against P. falciparum in words (P. falciparum strain W2): most active

Q: What does the source list for `CNCC(O)c1cc(C(F)(F)F)nc2c(C(F)(F)F)cccc12` (centres unmarked) [WR308245]?
A: Brain concentrations (free and whole) relative to mefloquine, in words [1]: much higher; Potency against P. falciparum in words (P. falciparum strain W2): most active

Q: With `CN(C)CC(O)c1cc(C(F)(F)F)nc2c(C(F)(F)F)cccc12` (centres unmarked) [WR308246] as the molecule, how does the “Brain concentrations (free and whole) relative to mefloquine, in words” value [1] read?
A: much higher

Q: And the “Potency against P. falciparum in words” value (P. falciparum strain W2)?
A: most active

Q: With `CC(C)NCC(O)c1cc(C(F)(F)F)nc2c(C(F)(F)F)cccc12` (centres unmarked) [WR308257] as the molecule, how does the “Brain concentrations (free and whole) relative to mefloquine, in words” value [1] read?
A: much higher

Q: What about the “Potency against P. falciparum in words” value (P. falciparum strain W2) of the same molecule?
A: most active

Q: With `OC(CN1CCCCC1)c1cc(C(F)(F)F)nc2c(C(F)(F)F)cccc12` (centres unmarked) [WR308265] as the molecule, how does the “Brain concentrations (free and whole) relative to mefloquine, in words” value [1] read?
A: much higher

Q: And the “Potency against P. falciparum in words” value (P. falciparum strain W2)?
A: most active

Q: With `CSCCCNCC(O)c1cc(C(F)(F)F)nc2c(C(F)(F)F)cccc12` (centres unmarked) [WR308278] as the molecule, how does the “Brain concentrations (free and whole) relative to mefloquine, in words” value [1] read?
A: much higher

Q: What about the “Potency against P. falciparum in words” value (P. falciparum strain W2) of the same molecule?
A: most active

Q: With `CCC(C)CNCC(O)c1cc(C(F)(F)F)nc2c(C(F)(F)F)cccc12` (centres unmarked) [WR308387] as the molecule, how does the “Brain concentrations (free and whole) relative to mefloquine, in words” value [1] read?
A: much higher

Q: What about the “Potency against P. falciparum in words” value (P. falciparum strain W2) of the same molecule?
A: most active

Q: Which “Maximum whole brain concentration” value [1] does the source give for `OC(CNCCNCc1ccccc1)c1cc(C(F)(F)F)nc2c(C(F)(F)F)cccc12` (centres unmarked) [WR308396] here?
A: 1768 ng/g

Q: What about the “Maximum free brain concentration” value [1] of the same molecule?
A: 3.5 ng/g

Q: And the remaining at 24 h [1]?
A: 4.6%

Q: What about the IC90 (P. falciparum strain W2; W2, read-out: IC90 W2) of the same molecule?
A: 0.006 mg/L (≈ 0.0131 µM)

Q: What about the “Potency against P. falciparum in words” value (P. falciparum strain W2) of the same molecule?
A: acceptable potency

Q: Which results are given for `COCCNCC(O)c1cc(C(F)(F)F)nc2c(C(F)(F)F)cccc12` (centres unmarked) [WR308412]?
A: Brain concentrations (free and whole) relative to mefloquine, in words [1]: much higher; Potency against P. falciparum in words (P. falciparum strain W2): most active

Q: Which “Maximum whole brain concentration” value [1] does the source give for `OC(CNC1CCNC1)c1cc(C(F)(F)F)nc2c(C(F)(F)F)cccc12` (centres unmarked) [WR308781] here?
A: 689 ng/g

Q: What about the “Maximum free brain concentration” value [1] of the same molecule?
A: 5.6 ng/g

Q: What about the remaining at 24 h [1] of the same molecule?
A: 3.3%

Q: What about the IC90 (P. falciparum strain W2; W2, read-out: IC90 W2) of the same molecule?
A: > 0.5 mg/L

Q: Which “Maximum whole brain concentration” value [1] does the source give for `OC(CNC1CCCNC1)c1cc(C(F)(F)F)nc2c(C(F)(F)F)cccc12` (centres unmarked) [WR318744] here?
A: 593 ng/g

Q: What about the “Maximum free brain concentration” value [1] of the same molecule?
A: 3.5 ng/g

Q: What about the remaining at 24 h [1] of the same molecule?
A: 17%

Q: What about the IC90 (P. falciparum strain W2; W2, read-out: IC90 W2) of the same molecule?
A: > 0.5 mg/L

Q: Which “Maximum whole brain concentration” value [1] does the source give for `CCCCNCCNCC(O)c1cc(C(F)(F)F)nc2c(C(F)(F)F)cccc12` (centres unmarked) [WR318746] here?
A: 431 ng/g

Q: What about the “Maximum free brain concentration” value [1] of the same molecule?
A: 3.8 ng/g

Q: What about the remaining at 24 h [1] of the same molecule?
A: 2.4%

Q: And the IC90 (P. falciparum strain W2; W2, read-out: IC90 W2)?
A: 0.069 mg/L (≈ 0.163 µM)

Q: For `OC(CNCC12CCC(C1)NC2)c1cc(C(F)(F)F)nc2c(C(F)(F)F)cccc12` (centres unmarked) [WR319535], which “Maximum whole brain concentration” value [1] is on record?
A: 145 ng/g

Q: What about the “Brain concentrations (free and whole) relative to mefloquine, in words” value [1] of the same molecule?
A: acceptable

Q: And the “Maximum free brain concentration” value [1]?
A: 0.45 ng/g

Q: And the remaining at 24 h [1]?
A: 2.7%

Q: And the “Potency against P. falciparum in words” value (P. falciparum strain W2)?
A: modest potency

Q: What about the “Half-life relative to mefloquine” value [2] of the same molecule?
A: longer than mefloquine
